The nature of series [1]: Inhibition of SIN1-mediated peroxynitrite oxidation of luminol (L-012 assay). The note with it: for Peroxynitrite gen (% control, 10 μM): compound at 10 μM, SIN-1 100 μM, L-012, PBS pH 8.5. Format: biochemical. How it is done: Luminol-like compounds such as L-012 are chemilumescent probes that are oxidized by the presence of ROS and RNS such as peroxynitrite. In this assay L-012 is oxidized by the addition of 3-morpholino-sydnonimine (SIN-1), a known peroxynitrite generator. The emitted luminescence is directly proportional to the concentration of SIN-1. The compounds were assessed for their ability to neutralize/scavenge/decompose peroxynitrite by blocking the increase of peroxynitrite induced chemilumescence. Concentrations of compound producing 50% inhibition of the luminescence signal (IC50 values) were calculated by testing the compounds at various concentrations of two parallel measurements.
Stock solution (10 mM) of compounds were prepared in 100% DMSO.
The following solutions were added to white polystyrene, non-sterile 96-well plate (Thermo Scientifi NUNC™ 96 MICROWELL™ White Polystyrene Plates #447796): • 10 μL SIN-1 2 mM in 100% DMSO solution (SIN-1 final concentration 100 DMSO final volume—5%); • 190 μL L012+/−test compound in phosphate-buffered solution (PBS, pH=8.5) (L012 final concentration 100 μM).
Luminescence signal was recorded by Hidex Sense multimodal microplate reader (Hidex) at 30° C. for 30 min, with a measurement every 60 sec and an integration time of 1 sec.
IC50 values were calculated using two different methods; first by measuring the slopes of the steepest linear portion of the kinetic profile during the first 5 min (as % from control) and secondly, by measuring the maximal luminiscence at 30 min time point (as % from control). IC50 values of the tested compounds were calculated using GraphPad Prism 5.0 software package.

Series [2] deals with nerve injury induced tactile allodynia. The series is described as follows: Rat spinal nerve ligation (SNL) model, tactile allodynia (von Frey). Format: in vivo. The note with it: 100 mg/kg i.p. How it is done: The spinal nerve ligation (SNL) model of neuropathic pain in the rat results in behaviors similar to that observed in patients (Kim & Chung, 1992, Pain 50(3):355-63) and has been widely used to assess novel pharmacological treatments (Sindrup & Jensen, 1999, Pain 83(3):389-400). Compounds of the invention were evaluated for its ability to reverse or prevent development of tactile allodynia in a rat model of neuropathic pain.
The positive control was gabapentin (Toronto Research Chemicals, Canada). The negative control was vehicle (0.5% methyl cellulose; 2-hydroxy-propyl-beta-cyclodextrin). Male Sprague-Dawley Rats (Harlan, 11) were 250-300 g at time of dosing. […]
The effect of compounds of the invention on nerve injury induced tactile allodynia was investigated using von Frey filaments 1-3 weeks after tight ligation of the LS spinal nerve. Tactile thresholds were assessed using a series of calibrated von Frey monofilaments (Stoelting, Wood Dale, Ill.). Assessment of tactile allodynia was measured as the hind paw-withdrawal threshold that produced a 50% likelihood of a withdrawal using the up-down method. Thresholds were evaluated before surgery, and they were reassessed 1-3 weeks after SNL surgery. […] Tactile thresholds were again assessed either 1 and 3 h, 3 and 5 h or once weekly after administration. […]

Series [3] has as its system latency to fall from rotarod. The series is described as follows: Accelerating rotarod assay of ataxia. Format: in vivo, rat. Conditions: 3 mg/kg p.o., 1 h post-administration. How it is done: Ataxia is a common clinical problem with CNS-active compounds and can often confound interpretation of efficacy in preclinical pain models. The rotarod assay of ataxia has been widely used to assess the side-effect liability of novel pharmacological treatments (Jones & Roberts, 1968, J. Pharm. Pharmacol. 20:302-04).
The effect of compounds of the invention to impact latency to fall in an accelerating rotarod assay of ataxia in rats was evaluated. The positive control was haloperidol (Sigma, St. Louis), and the negative control was vehicle (which was hydroxypropylmethyl-cellulose and 15% DMA, 65% PEG300, and 20% D5W for haloperidol).
Male Sprague-Dawley Rats (Harlan, Ill.) were 250-300 g at time of dosing. Rotarod was obtained from IITC, CA. To examine the potential effects of compounds of the invention on motor performance, rats were tested on an accelerating rotarod (IITC, Ca). In this assay, rats were placed on the rotarod with the speed set to accelerate from 4 to 40 rpm over 300 sec. The maximum time spent on the rotarod was set at 300 seconds. Rats received two timed training trials (averaged to give the reported baseline) on the first day, then 24 h later rats were administered compound of the invention (30, 100 and 300 mg/kg, p.o.), haloperidol (3 mg/kg, p.o.) or vehicle.

The subject of series [4] is carrageenan-induced thermal hyperalgesia and edema. The series is described as follows: Intraplantar carrageenan model of acute inflammatory pain (Hargreaves test, paw volume). The note with it: 30 mg/kg p.o., dosed preemptively, assessed 4 h post-carrageenan. Format: in vivo, rat. How it is done: The intraplantar carrageenan model of acute inflammatory pain in the rat results in behaviors similar to that observed in patients and has been widely used to assess novel pharmacological treatments (Whiteside, et al., 2005, J. Pharmacol. Exp. Ther. 314:1234-1240).
For this assay, paw withdrawal latency to a thermal stimulus was assessed using a radiant heat source (Ugo Basile, Italy) aimed at the plantar surface of the left hind paw (Hargreaves test). A cut-off latency of 40 sec is set to avoid tissue damage. Paw volume was measured by displacement of water and assuming a tissue density equal to that of water. Baseline latencies were taken prior to carrageenan administration and re-assessed 4 h later. Compounds of the invention or vehicle were administered (10 and 30 mg/kg, p.o.) 3 h after carrageenan (curative) and behavior assessed 1 h later. Additionally, compounds of the invention were administered 15 minutes prior to carrageenan (preemptive) and behavior assessed 4 h post carrageenan. Indomethacin (positive control, 30 mg/kg p.o.) was administered prior to carrageenan and behavior assessed 4 h post-carrageenan.
Intraplantar injection of carrageenan was performed under 2.5-4.0% isoflurane/O2 anesthesia, delivered via nose cone. After induction of anesthesia, the injection site was prepared in a sterile manner and 50 μL of a 2% λ-carrageenan was injected. […]

The mark [5] stands for this setting: from maximal luminescence at 30 min time point, read-out: IC50 (μM) (% luminol absorb. @ 30 min).
The mark [6] stands for this setting: from slopes of steepest linear portion of kinetic profile during first 5 min, read-out: IC50 (μM) (% PN gen).

The values that follow come from US10844054B2, “Compounds for pain treatment, compositions comprising same, and methods of using same” (CERSCI THERAPEUTICS, INC., priority 2018, dated 2020).

Structures are written as SMILES. Read-outs that look alike come from different tables or passages of the source.

As for `CC1(C)SC(Nc2ncccc2O)=N[C@@H]1C(=O)O.Cl` [Compound 4a, (R)-2-(3-Hydroxy-pyridin-2-ylamino)-5,5-dimethyl-4,5-dihydro-thiazole-4-carboxylic acid hydrochloride], the “Peroxynitrite gen (% control, 10 μM)” value in series [1] stood at 0 % control. In addition, the IC50 (usually the concentration that gives 50% inhibition) turned out to be 1.8 µM in series [1] (setting [5]) and 0.26 µM in series [1] (setting [6]).

As for `CC1(C)SC(Nc2ncccc2O)=N[C@H]1C(=O)O.Cl` [Compound 5a, (S)-2-(3-Hydroxy-pyridin-2-ylamino)-5,5-dimethyl-4,5-dihydro-thiazole-4-carboxylic acid hydrochloride], in series [1], the “Peroxynitrite gen (% control, 10 μM)” value was determined as 0 % control. Further, the IC50 in series [1] (setting [5]) was determined as 1.6 µM; in series [1] (setting [6]), 0.17 µM.

As for `Cl.O=C(O)[C@@H]1CSC(Nc2ncccc2O)=N1` [Compound 7a, (R)-2-((3-hydroxypyridin-2-yl)amino)-4,5-dihydrothiazole-4-carboxylic acid hydrochloride], the “Peroxynitrite gen (% control, 10 μM)” value in series [1] stood at 0 % control. The IC50 in series [1] (setting [5]) worked out at 1.8 µM; in series [1] (setting [6]), 0.17 µM.

Turning to `Cl.O=C(O)[C@H]1CSC(Nc2ncccc2O)=N1` [Compound 8a, (S)-2-((3-hydroxypyridin-2-yl)amino)-4,5-dihydrothiazole-4-carboxylic acid hydrochloride], in series [1], the “Peroxynitrite gen (% control, 10 μM)” value turned out to be 0 % control. Also, the IC50 in series [1] (setting [5]) was 2.1 µM; in series [1] (setting [6]), 0.23 µM.

In the case of `CC1(C)SC(Nc2cnccc2O)=N[C@@H]1C(=O)O.Cl` [Compound 12a, (R)-2-((4-Hydroxypyridin-3-yl)amino)-5,5-dimethyl-4,5-dihydrothiazole-4-carboxylic acid hydrochloride], the “Peroxynitrite gen (% control, 10 μM)” value in series [1] was found to be 82 % control. The IC50 in series [1] (setting [5]) and in series [1] (setting [6]) was more than 10 µM throughout.

For `CC1(C)SC(Nc2ccncc2O)=N[C@@H]1C(=O)O.Cl` [Compound 17a, (R)-2-((3-Hydroxypyridin-4-yl)amino)-5,5-dimethyl-4,5-dihydrothiazole-4-carboxylic acid hydrochloride], the “Peroxynitrite gen (% control, 10 μM)” value in series [1] came out at 75 % control. Moreover, the IC50 in series [1] (setting [5]) and in series [1] (setting [6]) was more than 10 µM throughout.

Regarding `CC1(C)SC(Nc2ccncc2O)=N[C@H]1C(=O)O.Cl` [Compound 18a, (S)-2-((3-Hydroxypyridin-4-yl)amino)-5,5-dimethyl-4,5-dihydrothiazole-4-carboxylic acid hydrochloride], the “Peroxynitrite gen (% control, 10 μM)” value in series [1] is recorded as 77 % control. The IC50 in series [1] (setting [5]) and in series [1] (setting [6]) was more than 10 µM in each case.

Take `CC1(C)SC(Nc2cccnc2O)=N[C@@H]1C(=O)O.Cl` [Compound 22a, (R)-2-((2-Hydroxypyridin-3-yl)amino)-5,5-dimethyl-4,5-dihydrothiazole-4-carboxylic acid hydrochloride]: in series [1], the “Peroxynitrite gen (% control, 10 μM)” value is 96 % control. The IC50 in series [1] (setting [5]) and in series [1] (setting [6]) was more than 10 µM in each case.

`CC1(C)SC(Nc2cccnc2O)=N[C@H]1C(=O)O.Cl` [Compound 23a, (S)-2-((2-Hydroxypyridin-3-yl)amino)-5,5-dimethyl-4,5-dihydrothiazole-4-carboxylic acid hydrochloride]: the “Peroxynitrite gen (% control, 10 μM)” value in series [1] is 67 % control. Besides, the IC50 in series [1] (setting [5]) and in series [1] (setting [6]) was more than 10 µM in each case.

Take `Cl.O=C(O)[C@@H]1CSC(Nc2cnccc2O)=N1` [Compound 25a, (R)-2-((4-Hydroxypyridin-3-yl)amino)-4,5-dihydrothiazole-4-carboxylic acid hydrochloride]: in series [1], the “Peroxynitrite gen (% control, 10 μM)” value is 111 % control. Moreover, the IC50 in series [1] (setting [5]) and in series [1] (setting [6]) was more than 10 µM each time.

Take `Cl.O=C(O)[C@@H]1CSC(Nc2ccncc2O)=N1` [Compound 27a, (R)-2-(3-Hydroxy-pyridin-4-ylamino)-4,5-dihydro-thiazole-4-carboxylic acid hydrochloride]: in series [1], the “Peroxynitrite gen (% control, 10 μM)” value is 61 % control. Further, the IC50 in series [1] (setting [5]) and in series [1] (setting [6]) was more than 10 µM each time.

With `NCC1(CC(=O)O)CCCCC1` [gabapentin], the “reversal of tactile allodynia” value in series [2] is “statistically significant reversal of allodynia”.

`O=C(CCCN1CCC(O)(c2ccc(Cl)cc2)CC1)c1ccc(F)cc1` [haloperidol]: the “motor performance / latency to fall in rotarod” value in series [3] is “significant motor deficits”.

Turning to `COc1ccc2c(c1)c(CC(=O)O)c(C)n2C(=O)c1ccc(Cl)cc1` [indomethacin], in series [4], the “prevention of carrageenan-induced edema (paw volume)” value was “statistically significant prevention” and the “prevention of carrageenan-induced thermal hyperalgesia” value was “statistically significant prevention”.
